Experimental data reported in patent US11951100B2, “Formulations of RBP4 inhibitors and methods of use” (Belite Bio, LLC, priority 2019, dated 2024).
In brackets after ≈: the same amount, converted by molar mass. Read-outs that look alike come from different tables or passages of the source.

Tests used:
[1] = test system: Abcd4/rdh8 double knockout mice; test: Abcd4/rdh8 double knockout mouse model of macular degeneration; assay type: in vivo
Excerpt: FIG. 2 is a graph of bisretinoid A2E (pmol in the eye) and RBP4 (serum) levels for ABCA4−/−RDH8−/− mice either untreated, treated with vehicle, or treated with Compound 1.
FIG. 3 is a graph of outer nuclear layer (ONL) thickness (μm) as a function of distance (μm) from the optic nerve (ONH). ONL is the cell layer consisting of photoreceptor cell bodies (rods and cones). Dry AMD or STGD is often associated with thinning of the ONL and the loss of photoreceptor cells, indicating macular degeneration.
Abcd4/rdh8 double knockout mice were either untreated or treated with Compound 1. Wild type C57BL/6J mice were also used as a normal control. […] (FIG. 2). Diseases such as dry AMD or Stargardt are associated with thinning of the outer nuclear layer (ONL) of the eye and the loss of photoreceptor cells, indicating macular degeneration.

[2] = Non-sink dissolution, 0.1N HCl then FaSSIF; assay type: physicochemical
Method: Sample of solid dispersions containing Compound 1 were analyzed in a non-sink dissolution experiment. Dispersion samples and neat Compound 1 were suspended in 0.1N HCl media at a concentration of 1000 ug/mL Compound 1. Concentration of each sample was then measured by centrifugation to pellet undissolved material, and an aliquot of the supernatant was assessed by HPLC for concentration. Material was then agitated in a Distek 2100 C Dissolution apparatus, USP Type II. Instrument was operated according to standard instrument procedures provided by manufacturer. Parameters used for the experiment are shown below in Table 11. After 30 minutes, the media was modulated to FaSSIF by adding equivalent volume of FaSSIF buffer with bile salts, bringing the theoretical concentration of compound 1 to 500 μg/mL. Dissolved concentration of Compound 1 in each sample was then assessed periodically by HPLC. […] These resulting values can be seen in Table 12 below.

[3] = MDSC of spray dried solid dispersions; assay type: physicochemical; settings: n = 3
Method: Samples of the solid dispersions containing Compound 1 were analyzed by Differential Scanning Calorimetry using a TA Discovery DSC2500 with RCS90 chiller according to standard instrument procedures provided by manufacturer. Parameters used for the analysis are shown below in Table 9. Three replicates of the experiment were run for each dispersion.

Caco-2 monolayers = test: Permeability through Caco-2 monolayers; assay type: in vitro ADME
Method: Several biopharmaceutically relevant parameters of the API (Compound 1) were obtained for the API. […] Based on these two biopharmaceutical parameters, this compound is possibly a BCS Class II. Solubility enhancement is critical for bioavailability of the API for dosing. Therefore, to overcome the limitation from solubility, several experiments were conducted to assess various solubility enhancement approaches utilized in formulation development

[4] = Chemical stability at elevated temperatures (DSC heating, HPLC); assay type: physicochemical; settings: Form C batch heated in DSC to a variety of temperatures and holding times
Method: The API was heated to a variety of temperatures with several holding time periods in DSC. The resulted solids in DSC pan were extracted with DMSO. The solutions of API were prepared and injected into HPLC for determination of assay and related substances. […] One of possible solution to the API degradation in hot-melt extrusion might be the addition of a plasticizer which may lower the process temperature for maintaining chemical integrity of the API.

[5] = Non-sink dissolution of unmicronized and micronized Form C in SLS in water; assay type: physicochemical; settings: aqueous with cosolvent or surfactant or cyclodextrin
Excerpt: The enhancement in dissolution rate from micronized samples was likely due to the increase in surface area after micronization supported by microscopic images and particle sizing.

[6] = treated vs untreated Abcd4/rdh8 double knockout mice

AUC 5-180 IB ([2]; FaSSIF): 1300 min*μgA/mL
C210 ([2]; final concentration): 7.1 μgA/mL
Tg [3]: 93.4 °C
Tg Onset [3]: 89.4 °C
efflux (Caco-2 monolayers; apical-to-basolateral and basolateral-to-apical): no significant efflux
absorption potential classification (Caco-2 monolayers; apical-to-basolateral and basolateral-to-apical (Absorption Systems)): high
BCS classification (Caco-2 monolayers; based on Log D7.4 and Caco-2 data, possibly): BCS Class II
solubility ([5]; 0.366% SLS in water, read-out: nominal solubility of the API): ~460 µg/mL (≈ 1010 µM)
solubility ([5]; 0.36% SLS in water, calculated from SLS concentration vs solubility profile, read-out: solubility of the API): 445 µg/mL (≈ 974 µM)
SMILES: CC(=O)N1CCc2c(C(=O)N3CCC(c4ccc(F)c(F)c4C(F)(F)F)CC3)n[nH]c2C1 [Compound 1, 1-(3-(4-(3,4-difluoro-2-(trifluoromethyl)phenyl)piperidine-1-carbonyl)-1,4,5,7-tetrahydro-6H-pyrazolo[3,4-c]pyridin-6-yl)ethan-1-one]
reduction in bisretinoid accumulation ([1]; bisretinoid A2E in the eye, ABCA4−/−RDH8−/− mice treated with Compound 1, p=0.003, unpaired t-test): 80%
outer nuclear layer (ONL) thickness ([1]; diseased group treated with Compound 1 vs diseased group): preserved
levels of A2E in the retina [1, 6]: significantly lower
levels of RBP4 in serum [1, 6]: lower
chemical stability at elevated temperatures, HPLC related substances [4]: impurity (with RRT=0.8 in HPLC) were present in all prepared samples except the control sample
